{
  "source": "patent US9868767B2",
  "about": "“Chemical synthesis and screening of bicyclic peptide libraries” (OHIO STATE INNOVATION FOUNDATION, priority 2013, dated 2018)",
  "key": {"K-Ras [1]": {"target": "T1, K-Ras (Homo sapiens, UniProt P01116, G12V)", "T1 construct": "GST; made in house", "assay": "Competition between labeled peptide 2 and DCAI for K-Ras", "assay_type": "binding"}, "H358 lung cancer cells": {"tested_on": "H358 lung cancer cells", "assay": "MTT assay, growth of H358 cells", "assay_type": "cell-based", "experimental": "FIG. 23a, b show on-bead assay of inhibition of Ras-Raf interaction by cyclorasin B3.\nCyclorasin B2-B4 were tested for inhibition of cell proliferation by the MTT assay."}, "human TNFα": {"target": "T2, human TNFα (Homo sapiens, UniProt P01375)", "T2 construct": "extracellular domain of human TNFα (aa 77-233); made in house; host or cells: E. coli BL21(DE3)", "assay": "Fluorescence anisotropy (FA) binding to TNFα", "details": "resynthesized, FITC-labeled, HPLC-purified peptide"}, "WEHI-13VAR fibroblasts [2]": {"tested_on": "WEHI-13VAR fibroblasts"}, "K-Ras [3]": {"target": "K-Ras (Homo sapiens, UniProt P01116)", "assay": "FA-based competition assay for binding to K-Ras"}, "Ras-Raf interaction": {"target": "Ras-Raf interaction (Homo sapiens, UniProt P01116)", "assay": "Qualitative on-bead assay of Ras-Raf interaction", "assay_type": "binding", "details": "10 μM peptide, Texas red-labeled K-Ras, immobilized GST-Raf"}, "WEHI-13VAR fibroblasts [4]": {"tested_on": "WEHI-13VAR fibroblasts", "details": "in the presence of actinomycin-D; Khabar et al.; cited from earlier work"}, "H1299 lung cancer cells": {"tested_on": "H1299 lung cancer cells", "assay": "MTT proliferation assay", "assay_type": "cell-based", "experimental": "One hundred μL of H1299 cells (0.5×10^5 cells/mL) were placed in each well of a 96-well culture plate and allowed to grow overnight. […] Ten μL of a MTT stock solution (5 mg/ml) was added into each well. The plate was incubated at 37° C. for 4 h. Then 100 μL of SDS-HCl solubilizing buffer was added into each well, and the resulting solution was mixed thoroughly. The plate was incubated at 37° C. overnight. The absorbance of the formazan product was measured at 570 nm using a Molecular Devices Spectramax M5 plate reader. Cells treated with DMSO were used as control."}, "K-Ras [5]": {"target": "T1, K-Ras", "assay": "FA binding to K-Ras (Example 4 DCAI-bearing bicyclic peptides)", "details": "FAM- or FITC-labeled peptide; NB = no binding", "text": "To confirm the screening results, four hit sequences (peptides A2, A8, B5 and B8; hereafter named as peptides 1-4) were selected for resynthesis and tested for binding to K-Ras in solution by fluorescence anisotropy. The peptides were synthesized on Rink Amide resin, cleaved, deprotected, and purified by reversed-phase HPLC. Each peptide contains a Lys outside of the bicyclic rings to serve as the point of labeling with an amine-reactive fluorescent dye (FAM-NHS or FITC)."}, "TNFα-TNFR1 interaction": {"target": "T3, TNFα-TNFR1 interaction (Homo sapiens, UniProt P01375)", "T3 construct": "extracellular domain of human TNFα (aa 77-233); host or cells: E. coli BL21(DE3) (TNFα)", "assay": "TNFα-TNFR1 interaction ELISA (HRP-TNFR1, immobilized TNFα)", "details": "read-out: IC50, inhibition of TNF-alpha binding to its cognate receptor", "experimental": "Recombinant TNFR1 was purchased from R&D Systems. EZ-Link Plus activated peroxidase, an amine-reactive form of HRP was purchased from Thermo Scientific. TNFR1 was labeled with HRP by combining 50 μL of TNFR1 (1.0 μM) and 4 μL of HRP […], of Na2CO3 buffer (0.2 M Na2CO3, 0.15 M NaCl, pH 9.0) for 1 h. The resulting TNFR1-HRP conjugate was treated with NaCNBH3 to reduce the resulting Schiff base and quenched with 20 μl of ethanolamine. A Nunc 96F Maxisorp plate was coated overnight with 100 μL of […] Neutravidin (in 50 mM Na2CO3, pH 9.0) at 4° C. The solution was removed and each well was washed with 100 μL of the blocking buffer containing 3% BSA. […] The absorbance at 450 nm was measured and plotted against the peptide concentration and the IC50 value was obtained by curve fitting.\nTNFα signaling begins with the binding of the TNFα trimer to the extracellular domain of TNFR1, triggering the release of the inhibitory protein, silencer of death domains (SODD), from the intracellular domain of TNFR1 (Chen, G and Goeddel, D V. Science, 2002, 296, 1634-1635). […] After washing, the amount of HRP-TNFR1 bound to each well was quantitated by ELISA using 3,3′,5,5′-tetramethylbenzidine (TMB) as HRP substrate, which was converted into 3,3′,5,5′-tetramethylbenzidine diimine by HRP resulting in absorbance at 450 nm (Martin, T L et al. J. Histochem. Cytochem., 1984, 32, 793)."}, "[6]": {"target": "GST-FKBP12 fusion protein (Homo sapiens, UniProt P62942)", "assay": "FA binding to GST-FKBP12"}, "Ras-GTP": {"target": "Ras-GTP (Homo sapiens, UniProt P01116)", "assay": "FA binding to K-Ras loaded with GTP"}},
  "note": "Entries after “also recorded” stand apart in the source; their conditions may differ. Like-named read-outs stand apart in the source and are kept apart here. Bridges are numbered along the chain shown (N, C = ends). Primed or numbered codes have the meaning given here. Where no end group is shown, it is not given here. [ ]: non-standard residue; d: D form. trimesoyl″ = trimesic acid scaffold joined by three amide bonds; Nal = naphthylalanine (isomer not specified); pY = N[C@@H](Cc1ccc(OP(=O)(O)O)cc1)C(=O)O; Phg = N[C@H](C(=O)O)c1ccccc1; Pra = C#CC[C@H](N)C(=O)O; dNal = D-naphthylalanine; Dap = NC[C@H](N)C(=O)O",
  "data": [
    {"molecule": "Cc1[nH]c2cc(Cl)cc(Cl)c2c1CCN", "note": "[DCAI, 4,6-dichloro-2-methyl-3-aminoethyl-indole]", "values": [
      {"measurement": "IC50", "setting": "K-Ras [1]", "value": 1400, "unit": "µM"}
    ]},
    {"molecule": "CCCCCCCC/C=C\\CCCCCCCC(=O)NCCCC[C@H](NC(=O)[C@@H]1CNC(=O)c2cc3cc(c2)C(=O)NC(Cc2ccc4ccccc4c2)C(=O)N[C@@H](CO)C(=O)N[C@@H](CCC(N)=O)C(=O)NC(Cc2ccc4ccccc4c2)C(=O)N[C@@H](c2ccccc2)C(=O)N[C@@H](CCCCNC3=O)C(=O)N[C@H](Cc2ccccc2)C(=O)N[C@@H](CCCNC(=N)N)C(=O)N[C@H](C(C)C)C(=O)NC(CCCNC(=N)N)C(=O)N1)C(N)=O", "note": "(some centres unmarked) [oleiylated cyclorasin B3]", "values": [
      {"measurement": "anti-proliferative activity against H358 lung cancer cells", "setting": "H358 lung cancer cells", "value": "modest anti-proliferative activity"}
    ]},
    {"molecule": "Bicyclo(Arg-Arg-Arg-Arg-Nal-Phe-Dap-S er-D-Val-Pro-pTyr-His-Dap) (RRRR[Nal]F[Dap]S[dV]P[pY]H[Dap]; linker N-7-13 via trimesic acid (inferred)) [control bicyclic peptide, reference compound]", "values": [
      {"measurement": "KD for TNFα", "setting": "human TNFα", "value": "no detectable binding"},
      {"measurement": "protection of cells from TNFα-induced cell death", "setting": "WEHI-13VAR fibroblasts [2]; TNFα 0.04 ng/mL, peptide 0-25 μM, actinomycin D", "value": "no protective effect"}
    ]},
    {"molecule": "Orn-Arg-nal-Arg-Fpa-Lys-phe-glu-Gly-Dap [Hit 105B]", "values": [
      {"measurement": "inhibition of binding of (FITC-labeled) cyclorasin B4 to K-Ras", "setting": "K-Ras [3]", "value": "inhibited the binding of FITC-labeled B4 to K-Ras"},
      {"measurement": "effect on Ras-Raf interaction (bead staining)", "setting": "Ras-Raf interaction", "value": "completely abolished"}
    ]},
    {"molecule": "TNFα: Tumor necrosis factor-alpha, cytokine used to induce cell death", "values": [
      {"measurement": "LD50 range of TNFα", "setting": "WEHI-13VAR fibroblasts [4]", "value": "0.005 to 0.065", "unit": "ng/mL"},
      {"measurement": "LD50 of TNFα in the absence of TNFα inhibitor", "setting": "WEHI-13VAR fibroblasts [2]; TNFα 0-250 ng/mL", "value": 0.46, "unit": "ng/mL"}
    ]},
    {"molecule": "bicyclo(Ala-d-Leu-Phe-Arg-d-Asn-Pra-Ile-Asp-K-FNalR4-Dap)-K [Peptide 41]", "values": [
      {"measurement": "EC50", "setting": "H1299 lung cancer cells; 24-hour treatment, peptide 0-40 μM, read-out: ED50, anti-proliferative activity", "value": "~9", "unit": "µM"},
      {"measurement": "EC50", "setting": "H1299 lung cancer cells; 72 h, read-out: ED50, cell growth inhibition", "value": "~7", "unit": "µM"}
    ]},
    {"molecule": "bicyclo(Arg-Asp-Phg-Pra-d-Asn-K-FNalR4-Dap)-K (RD[Phg][Pra][dN]KF[dNal]RRRR[Dap]K-NH2; linker N-6-13 via trimesoyl″ (inferred); not fully specified; printed as bicyclo(Arg-Asp-Phg-Pra-d-Asn-K-FNalR4-Dap)-K) [Peptide 1]", "values": [
      {"measurement": "KD for K-Ras", "setting": "K-Ras [5]", "value": "does not bind"}
    ]},
    {"molecule": "bicyclo(Phg-Tyr-D-Ala-Lys-Tyr-D-Phe-Gly-D-Lys-His-Dap) [Necrostatin C1]", "values": [
      {"measurement": "Kd", "setting": "human TNFα", "value": 0.45, "unit": "µM"},
      {"measurement": "IC50", "setting": "TNFα-TNFR1 interaction", "value": 3.1, "unit": "µM"},
      {"measurement": "LD50 of TNFα in the presence of 50 μM Necrostatin C1", "setting": "WEHI-13VAR fibroblasts [2]; TNFα 0-250 ng/mL", "value": 1.8, "unit": "ng/mL"}
    ]},
    {"molecule": "nal-Ser-Gln-nal-Phg-Lys-phe-Arg-val-Arg-Dap [Hit 82]", "values": [
      {"measurement": "binding to GST-FKBP12", "setting": "[6]", "value": "very weakly"},
      {"measurement": "fold higher affinity for Ras-GTP and Ras-GPPNP than Ras-GDP", "setting": "Ras-GTP", "value": "approximately 8 fold"},
      {"measurement": "effect on Ras-Raf interaction (bead staining)", "setting": "Ras-Raf interaction; listed as cyclorasin B3", "value": "completely abolished; also recorded: abolished Ras-Raf interaction"}
    ]}
  ]
}
